From article PMC4855798, “Cell-bound lipases from Burkholderia sp. ZYB002: gene sequence analysis, expression, enzymatic characterization, and 3D structural model” (BMC Biotechnology, 2016)

Tested on: T1, LipC24
T1 construct: mature LipC24 coding region (ORF 438 aa), His6-tag, E. coli Origami2 (DE3), co-expressed with foldase LipB lacking N-terminal 70 residues; purified by HisTrap and DEAE, single 45 kDa band; counterpart in B. cepacia J2315 is BCAM2764
Test: spectrophotometric 4-nitrophenol release, non-linear regression
Type: biochemical, Burkholderia sp. ZYB002
Conditions: 40 °C, 20 mmol/L Na2HPO4-NaH2PO4 buffer pH 7.5; 0.1-1.8 mmol/L substrate

`CCCCCCCCCCCCCC(=O)Oc1ccc([N+](=O)[O-])cc1` [4-nitrophenyl myristate] showed a Km of 370 ± 70 µM.
